US7294189B2, “Wax emulsion preservative compositions and method of manufacture” (Hexion Specialty Chemicals, Inc., priority 2002, dated 2007)
“Also recorded” adds a separate entry of the source.

Legend:
mold cultures = assay: ASTM D3273 four week mold resistance test of gypsum product made with wax emulsion containing thiabendazole; details: 0.2% thiabendazole post-added to wax emulsion; closed chamber with potting soil and mold cultures, about 90° F., relative humidity 95% to 98%; first weeks of the test
Procedure: A wax emulsion formulation was prepared with the following components: G Wax (a paraffin wax) 33%, Montan wax 3.3%, alkyl phenol 0.5%, Disal 0.5%, potassium hydroxide 0.75%, ammonium hepta molybdonate 0.01%, starch 0.09%, polyfon H (lignosulfonic acid, sodium salt) 0.5%, water 61.35%. To this wax emulsion was post-added 0.2% thiabendazole, commercially available from Supreme Chemical of Cumming, Ga. under the trade designation MC-2. The wax emulsion was used to prepare a gypsum product. The resulting gypsum product was tested according to ASTM D3273. During this four week test, a sample of the subject material, such as a gypsum board, is placed in a closed chamber along with potting soil and mold cultures at a constant temperature of about 90° F. (32.2° C.) and relative humidity of 95% to 98%. The condition of the test sample is monitored weekly to determine the extent, if any, of mold growth.

biological growth = assay: Biological growth on particle board coupons (urea-formaldehyde binder) made with test emulsions, placed in various environments; details: emulsions with 1% or 2% thiabendazole by weight of the wax; emulsion 0.4% solids by weight of furnish; soaked and non-soaked coupons; constant humidity, rooftop, warehouse, laboratory; after six weeks (control coupons showed growth after first week)
Procedure: In other tests, test emulsions as described above was used to prepare sample particle board coupons comprising a urea-formaldehyde binder. Some test emulsions contained 1% thiabendazole, others 2%, by weight of the wax in the emulsions. The emulsion was added to the furnish from which the coupons were formed in an amount of 0.4% solids, by weight of the furnish. Some of the coupons were soaked in water for twenty-four hours before testing. For the test, various soaked and non-soaked coupons were placed in various environments including constant humidity conditions (72° F. (22.2° C.), 72% relative humidity (RH)), outdoor rooftop environmental conditions (exposed to air but shielded from direct impingement by precipitation); and indoors in an uncontrolled warehouse and in a laboratory environment, beside a water bath. Control coupons prepared and treated similarly were also place in these environments.

c1ccc2[nH]c(-c3cscn3)nc2c1 [thiabendazole, 2-(4′-thiazolyl) benzimidazole]
biological (mold) growth on gypsum product (mold cultures): effective in inhibiting the growth of biological agents on gypsum board; also recorded: no biological growth | visible biological growth on particle board coupons (biological growth): none of the sample coupons made with thiabendazole had any visible growth
